In ChEMBL document CHEMBL1201862, “PubChem BioAssay data set” (2004):
Activity calls are given as the source filed them. The rule behind the calls is not given here.

Biological target: T1, Exodeoxyribonuclease V (Escherichia coli (strain K12), UniProt P04993+P07648+P08394)
T1 sequence (P04993 whole entry): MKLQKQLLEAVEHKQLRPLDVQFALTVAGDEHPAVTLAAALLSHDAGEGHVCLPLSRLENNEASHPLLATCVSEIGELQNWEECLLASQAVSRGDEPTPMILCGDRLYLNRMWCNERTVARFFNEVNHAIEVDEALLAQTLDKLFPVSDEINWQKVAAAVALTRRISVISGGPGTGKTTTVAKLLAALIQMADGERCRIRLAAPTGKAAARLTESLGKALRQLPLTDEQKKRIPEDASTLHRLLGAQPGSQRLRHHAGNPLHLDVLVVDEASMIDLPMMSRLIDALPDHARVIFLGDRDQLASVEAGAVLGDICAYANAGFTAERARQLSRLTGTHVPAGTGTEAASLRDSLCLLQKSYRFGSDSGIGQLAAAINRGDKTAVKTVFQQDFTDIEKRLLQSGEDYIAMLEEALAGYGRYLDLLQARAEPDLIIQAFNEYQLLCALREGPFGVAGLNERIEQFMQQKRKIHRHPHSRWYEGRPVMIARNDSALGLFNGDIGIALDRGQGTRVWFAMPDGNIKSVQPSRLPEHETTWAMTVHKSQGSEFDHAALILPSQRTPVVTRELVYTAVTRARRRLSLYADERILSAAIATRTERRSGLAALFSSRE
T1 sequence (P07648 whole entry): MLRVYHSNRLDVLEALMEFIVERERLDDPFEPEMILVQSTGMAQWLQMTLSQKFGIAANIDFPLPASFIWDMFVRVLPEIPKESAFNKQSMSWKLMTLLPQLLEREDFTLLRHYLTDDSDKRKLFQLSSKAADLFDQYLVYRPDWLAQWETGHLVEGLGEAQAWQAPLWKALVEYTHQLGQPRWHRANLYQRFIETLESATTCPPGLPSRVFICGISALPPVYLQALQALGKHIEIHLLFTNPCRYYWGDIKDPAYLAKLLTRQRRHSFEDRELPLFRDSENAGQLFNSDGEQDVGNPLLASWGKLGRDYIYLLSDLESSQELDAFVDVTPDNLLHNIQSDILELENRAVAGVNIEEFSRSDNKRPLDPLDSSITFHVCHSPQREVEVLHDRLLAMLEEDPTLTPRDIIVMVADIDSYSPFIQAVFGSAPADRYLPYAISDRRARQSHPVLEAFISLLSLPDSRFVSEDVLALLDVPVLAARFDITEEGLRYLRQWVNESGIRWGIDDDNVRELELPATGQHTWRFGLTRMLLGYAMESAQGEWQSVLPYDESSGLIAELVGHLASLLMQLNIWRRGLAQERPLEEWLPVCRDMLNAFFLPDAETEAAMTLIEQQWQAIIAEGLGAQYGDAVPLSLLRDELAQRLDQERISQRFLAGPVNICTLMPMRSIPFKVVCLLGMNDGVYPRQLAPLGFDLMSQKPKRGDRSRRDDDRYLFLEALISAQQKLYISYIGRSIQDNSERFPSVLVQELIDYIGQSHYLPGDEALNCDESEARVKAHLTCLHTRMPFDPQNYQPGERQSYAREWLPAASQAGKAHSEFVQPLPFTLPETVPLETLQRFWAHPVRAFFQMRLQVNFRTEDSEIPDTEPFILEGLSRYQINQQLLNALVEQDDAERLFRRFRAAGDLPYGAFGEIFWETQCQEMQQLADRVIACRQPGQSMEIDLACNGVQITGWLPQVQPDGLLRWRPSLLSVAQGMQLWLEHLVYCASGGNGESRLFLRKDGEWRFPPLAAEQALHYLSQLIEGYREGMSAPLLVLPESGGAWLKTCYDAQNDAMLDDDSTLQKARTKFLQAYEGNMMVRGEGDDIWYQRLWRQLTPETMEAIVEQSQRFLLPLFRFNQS
T1 sequence (P08394 whole entry): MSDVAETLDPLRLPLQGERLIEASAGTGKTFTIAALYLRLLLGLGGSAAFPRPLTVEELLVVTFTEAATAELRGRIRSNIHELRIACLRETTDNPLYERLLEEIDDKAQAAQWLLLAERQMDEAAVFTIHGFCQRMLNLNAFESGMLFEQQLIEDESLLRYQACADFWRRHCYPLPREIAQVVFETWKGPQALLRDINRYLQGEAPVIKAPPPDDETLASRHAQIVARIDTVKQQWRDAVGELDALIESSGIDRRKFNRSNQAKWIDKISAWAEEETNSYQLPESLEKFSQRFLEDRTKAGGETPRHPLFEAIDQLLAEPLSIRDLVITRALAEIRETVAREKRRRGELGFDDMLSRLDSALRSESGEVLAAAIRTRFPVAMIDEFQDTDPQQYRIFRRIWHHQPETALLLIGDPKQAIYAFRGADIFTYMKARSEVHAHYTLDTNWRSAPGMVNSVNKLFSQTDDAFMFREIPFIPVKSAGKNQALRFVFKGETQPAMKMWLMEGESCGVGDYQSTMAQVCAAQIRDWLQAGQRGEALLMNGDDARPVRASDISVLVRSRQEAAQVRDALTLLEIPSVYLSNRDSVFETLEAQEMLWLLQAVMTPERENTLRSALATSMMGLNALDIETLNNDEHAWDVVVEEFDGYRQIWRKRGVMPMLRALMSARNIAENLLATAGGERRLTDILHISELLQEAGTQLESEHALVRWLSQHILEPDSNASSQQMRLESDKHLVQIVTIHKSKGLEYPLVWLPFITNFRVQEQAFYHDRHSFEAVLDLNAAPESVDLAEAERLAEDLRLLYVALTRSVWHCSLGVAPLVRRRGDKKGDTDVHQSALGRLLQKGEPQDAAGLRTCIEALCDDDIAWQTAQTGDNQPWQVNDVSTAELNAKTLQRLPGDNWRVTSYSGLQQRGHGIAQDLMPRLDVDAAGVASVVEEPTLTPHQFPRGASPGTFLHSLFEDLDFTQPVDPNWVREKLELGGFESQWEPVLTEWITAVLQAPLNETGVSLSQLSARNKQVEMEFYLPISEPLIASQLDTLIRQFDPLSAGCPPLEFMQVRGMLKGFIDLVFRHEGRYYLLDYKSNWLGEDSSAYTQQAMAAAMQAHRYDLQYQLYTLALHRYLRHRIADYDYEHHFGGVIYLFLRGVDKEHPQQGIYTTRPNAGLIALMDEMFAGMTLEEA
Experiment: E. coli RecBCD inhibitors, dose response, counter-screen for AddAB inhibitor project, absorbance, V66 E. coli, mutant T4 phage (AID 492957)
Assay type: functional, cell-based, Escherichia coli str. K-12 substr. MG1655

With `CCCC(=O)NC(c1ccc(N(C)C)cc1)c1ccc2cccnc2c1O` (stereo unspecified) the IC50 was > 119 µM (inactive).
